Drawing on patent US11524966B1 (Valo Early Discovery, Inc., priority 2017, dated 2022), this text covers IC50 for 20 compounds.

The target in this assay is T1, USP25 (USP25-His6, Boston Biochem E-546) (Homo sapiens, UniProt Q9UHP3).
T1 construct: His6; purchased Boston Biochem E-546
T1 sequence (Q9UHP3 1-1055): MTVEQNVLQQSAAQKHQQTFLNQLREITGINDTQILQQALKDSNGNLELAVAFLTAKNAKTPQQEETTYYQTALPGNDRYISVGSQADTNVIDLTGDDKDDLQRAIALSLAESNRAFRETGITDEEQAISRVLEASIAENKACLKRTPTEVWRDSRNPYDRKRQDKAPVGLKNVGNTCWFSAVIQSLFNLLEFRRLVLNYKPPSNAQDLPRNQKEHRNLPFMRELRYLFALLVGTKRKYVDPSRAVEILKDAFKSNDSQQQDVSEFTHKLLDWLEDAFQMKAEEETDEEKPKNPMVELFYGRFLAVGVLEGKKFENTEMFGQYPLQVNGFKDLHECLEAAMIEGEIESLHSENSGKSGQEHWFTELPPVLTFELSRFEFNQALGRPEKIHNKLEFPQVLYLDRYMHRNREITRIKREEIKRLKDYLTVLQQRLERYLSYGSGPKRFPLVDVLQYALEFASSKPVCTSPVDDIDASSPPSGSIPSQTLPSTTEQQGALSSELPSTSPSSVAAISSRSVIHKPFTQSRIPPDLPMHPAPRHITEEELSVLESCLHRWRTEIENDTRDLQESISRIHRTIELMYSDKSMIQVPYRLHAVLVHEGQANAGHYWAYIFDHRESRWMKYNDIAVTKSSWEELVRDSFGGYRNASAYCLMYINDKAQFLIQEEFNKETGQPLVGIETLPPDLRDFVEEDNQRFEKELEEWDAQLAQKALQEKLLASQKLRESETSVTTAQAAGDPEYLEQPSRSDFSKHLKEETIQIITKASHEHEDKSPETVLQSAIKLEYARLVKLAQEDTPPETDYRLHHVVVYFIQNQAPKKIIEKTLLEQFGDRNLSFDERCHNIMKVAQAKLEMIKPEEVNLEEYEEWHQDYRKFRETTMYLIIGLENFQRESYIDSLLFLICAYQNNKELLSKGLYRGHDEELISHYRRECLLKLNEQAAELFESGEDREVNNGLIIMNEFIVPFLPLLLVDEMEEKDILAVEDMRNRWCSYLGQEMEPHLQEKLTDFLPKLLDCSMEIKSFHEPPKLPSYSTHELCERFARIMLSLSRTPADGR
Put plainly: Ubiquitin-Rhodamine 110 Assay for USP25 Activity, Example A-2. In kind it is biochemical. Particulars: Ubiquitin-Rhodamine 110 assay, Example A-2; read-out: USP25 A-2 IC50 range. An outline of the steps: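 Steps: compound dilutions (top 25 μM, 3-fold, 10 points) were preincubated 30 min with 75 pM USP25-His6; 25 nM Ub-Rh110 substrate was added under initial-velocity conditions; after 45 min at room temperature, 10 mM citric acid stopped the reaction before fluorescence reading.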

Structures are written as SMILES. Where only a bound is given, the exact number is not on record here.

On to `CO[C@H]1CN(c2ccc3c(c2)CC[C@H](NC(=O)c2sc4nc(C)ccc4c2N)C3)C[C@@H]1N` [Example 116, 3-amino-N-[(2S)-6-[(3S,4S)-3-amino-4-methoxypyrrolidin-1-yl}-1,2,3,4-tetrahydronaphthalen-2-yl]-6-methylthieno[2,3-b]pyridine-2-carboxamide], for which the IC50 lay in the range of 200 to 2000 nM.
Then `CO[C@H]1CN(c2ccc3c(c2)OC[C@H](NC(=O)c2sc4nc(C)cnc4c2N)C3)C[C@@H]1N` [Example 117, 7-amino-N-[(3R)-7-[(3S,4S)-3-amino-4-methoxypyrrolidin-1-yl]-3,4-dihydro-2H-1-benzopyran-3-yl]-3-methylthieno[2,3-b]pyrazine-6-carboxamide], with 200 to 2000 nM; and `CO[C@H]1CN(c2ccc3c(c2)OC[C@H](NC(=O)c2sc4nc(C)sc4c2N)C3)C[C@@H]1N` [Example 118, 6-amino-N-[(3R)-7-[(3S,4S)-3-amino-4-methoxypyrrolidin-1-yl]-3,4-dihydro-2H-1-benzopyran-3-yl]-2-methylthieno[2,3-d][1,3]thiazole-5-carboxamide], with 200 to 2000 nM.
Then `CO[C@H]1CCN(c2ccc3c(c2)OC[C@H](NC(=O)c2sc4nc(C)ccc4c2N)C3)C[C@@H]1N` [Example 119, 3-amino-N-[(3R)-7-[(3S,4S)-3-amino-4-methoxypiperidin-1-yl}-3,4-dihydro-2H-1-benzopyran-3-yl]-6-methylthieno[2,3-b]pyridine-2-carboxamide], with 200 to 2000 nM; and `CO[C@@H]1CCN(c2ccc3c(c2)OC[C@H](NC(=O)c2sc4nc(C)ccc4c2N)C3)C[C@H]1N` [Example 120, 3-amino-N-[(3R)-7-[(3R,4R)-3-amino-4-methoxypiperidin-1-yl]-3,4-dihydro-2H-1-benzopyran-3-yl]-6-methylthieno[2,3-b]pyridine-2-carboxamide], with 200 to 2000 nM.
Then `CO[C@@H]1CN(c2ccc3c(c2)OC[C@H](NC(=O)c2sc4nc(C)ccc4c2N)C3)C[C@@H]1N` [Example 121, 3-amino-N-[(3R)-7-[(3S,4R)-3-amino-4-methoxypyrrolidin-1-yl]-3,4-dihydro-2H-1-benzopyran-3-yl]-6-methylthieno[2,3-b]pyridine-2-carboxamide], with 200 to 2000 nM; and `CO[C@H]1CN(c2ccc3c(c2)OC[C@H](NC(=O)c2sc4nc(C)ccc4c2N)C3)C[C@H]1N` [Example 122, 3-amino-N-[(3R)-7-[(3R,4S)-3-amino-4-methoxypyrrolidin-1-yl]-3,4-dihydro-2H-1-benzopyran-3-yl]-6-methylthieno[2,3-b]pyridine-2-carboxamide], with 200 to 2000 nM; and `Cc1ccc2c(N)c(C(=O)N[C@H]3COc4cc([C@H]5C[C@@H](N)C5)ccc4C3)sc2n1` [Example 123, 3-amino-6-methyl-N-[(3R)-7-[(1s,3S)-3-aminocyclobutyl]-3,4-dihydro-2H-1-benzopyran-3-yl]thieno[2,3-b]pyridine-2-carboxamide], with 200 to 2000 nM.
For the compound `Cc1ccc2c(N)c(C(=O)N[C@H]3COc4cc([C@H]5C[C@H](N)C5)ccc4C3)sc2n1` [Example 124, 3-amino-6-methyl-N-[(3R)-7-[(1r,3r)-3-aminocyclobutyl]-3,4-dihydro-2H-1-benzopyran-3-yl]thieno[2,3-b]pyridine-2-carboxamide], the IC50 was in the range of 200 to 2000 nM.
The result for `Cc1ccc2c(N)c(C(=O)N[C@H]3COc4cc(C5CC6COCC(C5)N6)ccc4C3)sc2n1` (stereo partly drawn) [Example 125, 3-amino-6-methyl-N-[(3R)-7-{3-oxa-9-azabicyclo[3.3.1]nonan-7-yl}-3,4-dihydro-2H-1-benzopyran-3-yl]thieno[2,3-b]pyridine-2-carboxamide] reads 50 to 200 nM; that for `Cc1ccc2c(N)c(C(=O)N[C@H]3COc4cc(N5CC6CCC(C5)N6)c(C#N)c(F)c4C3)sc2n1` [Example 126, 3-amino-N-[(3R)-6-cyano-7-{3,8-diazabicyclo[3.2.1]octan-3-yl}-5-fluoro-3,4-dihydro-2H-1-benzopyran-3-yl]-6-methylthieno[2,3-b]pyridine-2-carboxamide], 1 to 50 nM; that for `Cc1ccc2c(N)c(C(=O)N[C@H]3COc4cc(N5CC6CNCC(C5)O6)c(C#N)c(F)c4C3)sc2n1` [Example 127, 3-amino-N-[(3R)-6-cyano-5-fluoro-7-{9-oxa-3,7-diazabicyclo[3.3.1]nonan-3-yl}-3,4-dihydro-2H-1-benzopyran-3-yl]-6-methylthieno[2,3-b]pyridine-2-carboxamide], 50 to 200 nM.
Take `CO[C@H]1CN(c2ccc3c(c2)OC[C@H](NC(=O)c2sc4nc(C)ccc4c2N)C3)CC[C@@H]1N` [Example 128, 3-amino-N-[(3R)-7-[(3S,4S)-4-amino-3-methoxypiperidin-1-yl]-3,4-dihydro-2H-1-benzopyran-3-yl]-6-methylthieno[2,3-b]pyridine-2-carboxamide]: the IC50 lay within 200 to 2000 nM.
The result for `CO[C@@H]1CN(c2ccc3c(c2)OC[C@H](NC(=O)c2sc4nc(C)ccc4c2N)C3)CC[C@H]1N` [Example 129, 3-amino-N-[(3R)-7-[(3R,4R)-4-amino-3-methoxypiperidin-1-yl]-3,4-dihydro-2H-1-benzopyran-3-yl]-6-methylthieno[2,3-b]pyridine-2-carboxamide] reads 200 to 2000 nM; that for `CO[C@H]1CN(c2ccc3c(c2)CC[C@H](NC(=O)c2sc4nc(C)cnc4c2N)C3)C[C@@H]1N` [Example 130, 7-amino-N-[(2S)-6-[(3S,4S)-3-amino-4-methoxypyrrolidin-1-yl]-1,2,3,4-tetrahydronaphthalen-2-yl]-3-methylthieno[2,3-b]pyrazine-6-carboxamide], 200 to 2000 nM; that for `CCn1ccc2cc(C(=O)N[C@H]3CCc4cc(N5C[C@H](OC)[C@@H](N)C5)ccc4C3)nnc21` [Example 131, N-[(2S)-6-[(3S,4S)-3-amino-4-methoxypyrrolidin-1-yl]-1,2,3,4-tetrahydronaphthalen-2-yl]-7-ethyl-7H-pyrrolo[2,3-c]pyridazine-3-carboxamide], above 2000 nM.
For the compound `CCn1ccc2cc(C(=O)N[C@H]3CCc4cc(N5C[C@H](OC)[C@@H](N)C5)ccc4C3)cnc21` [Example 132, N-[(2S)-6-[(3S,4S)-3-amino-4-methoxypyrrolidin-1-yl]-1,2,3,4-tetrahydronaphthalen-2-yl]-1-ethyl-1H-pyrrolo[2,3-b]pyridine-5-carboxamide], the IC50 was above 2000 nM.
On to `CO[C@H]1CN(c2ccc3c(c2)CC[C@H](NC(=O)c2sc4nc(C)sc4c2N)C3)C[C@@H]1N` [Example 133, 6-amino-N-[(2S)-6-[(3S,4S)-3-amino-4-methoxypyrrolidin-1-yl]-1,2,3,4-tetrahydronaphthalen-2-yl]-2-methylthieno[2,3-d][1,3]thiazole-5-carboxamide], for which the IC50 was above 2000 nM.
As to `COc1ccc2c(N)c(C(=O)N[C@H]3CCc4cc(N5C[C@H](OC)[C@@H](N)C5)ccc4C3)sc2n1` [Example 134, 3-amino-N-[(2S)-6-[(3S,4S)-3-amino-4-methoxypyrrolidin-1-yl]-1,2,3,4-tetrahydronaphthalen-2-yl]-6-methoxythieno[2,3-b]pyridine-2-carboxamide], the IC50 was above 2000 nM.
The result for `COc1nc2sc(C(=O)N[C@H]3CCc4cc(N5C[C@H](OC)[C@@H](N)C5)ccc4C3)c(N)c2cc1F` [Example 135, 3-amino-N-[(2S)-6-[(3S,4S)-3-amino-4-methoxypyrrolidin-1-yl]-1,2,3,4-tetrahydronaphthalen-2-yl]-5-fluoro-6-methoxythieno[2,3-b]pyridine-2-carboxamide] reads above 2000 nM.

The IC50 is the midpoint of a concentration-inhibition curve.
